According to PubChem BioAssay (NCI):
Values joined by “and” are separate entries in the source; they are usually repeats but may differ in a detail not shown here. Equal entries are not always repeated.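 Exposure lasted 48 hours, with cells grown in 96-well plates and compounds tested at five concentrations. Abbreviation: GI50, concentration required for 50% inhibition of growth. TGI: total growth inhibition.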

What was measured:
Experiment in all cases: NCI-60 cell line screen, 48 h
786-0 renal = test system: 786-0 renal
A498 renal = test system: A498 renal
A549 NSCLC = test system: A549 NSCLC
EKVX NSCLC = test system: EKVX NSCLC
HL-60(TB) leukemia = test system: HL-60(TB) leukemia
HT29 colon = test system: HT29 colon
MCF7 breast = test system: MCF7 breast
MDA-N = test system: MDA-N
OVCAR-5 ovarian = test system: OVCAR-5 ovarian
RPMI-8226 leukemia = test system: RPMI-8226 leukemia
SF-539 CNS = test system: SF-539 CNS
SNB-19 CNS = test system: SNB-19 CNS

Row | Compound | TGI (786-0 renal) | TGI (A498 renal) | TGI (A549 NSCLC) | TGI (EKVX NSCLC) | TGI (HL-60(TB) leukemia) | TGI (HT29 colon) | TGI (MCF7 breast) | TGI (MDA-N) | TGI (OVCAR-5 ovarian) | TGI (RPMI-8226 leukemia) | TGI (SF-539 CNS) | TGI (SNB-19 CNS) | GI50 (A498 renal) | GI50 (A549 NSCLC) | GI50 (EKVX NSCLC) | GI50 (MCF7 breast) | GI50 (OVCAR-5 ovarian) | GI50 (SF-539 CNS) | GI50 (SNB-19 CNS)
1 | O=C(CN1c2ccccc2Sc2ccccc21)N1CCNCC1 | > 100 µM | > 100 µM | > 100 µM | > 100 µM | > 100 µM | > 100 µM | > 100 µM | > 100 µM | > 100 µM | > 100 µM | > 100 µM | > 100 µM | – | – | – | – | – | – | –
2 | NCC1CCN(c2nc3ccccc3c3c2CCCC3)CC1 | 12.3 µM | 25.7 µM | 24.9 µM | 27.7 µM | 8.13 µM | 6.22 µM | 15 µM | 7.92 µM | 24.7 µM | 6.3 µM | 11.3 µM | 24.3 µM | – | – | – | – | – | – | –
3 | CC(=O)OCC1OC(OC(C)(C)CC/C=C(\C)[C@@H]2C/C=C(\C)CC/C=C(\C)CC2)C(O)C(O)C1OC(C)=O (stereo partly drawn) | 96.8 µM and 58.8 µM | > 100 µM and 44.8 µM | > 100 µM and 36 µM | > 100 µM and 37.3 µM | 67.3 µM | > 55.5 µM and 28.1 µM | > 100 µM and 64.8 µM | > 61.4 µM and 41.5 µM | > 100 µM and 34.1 µM | 70.6 µM and > 100 µM | 82.9 µM and 33.9 µM | > 100 µM and 25 µM | > 100 µM and 24.4 µM | > 65.2 µM and 16.2 µM | 43.6 µM and 19 µM | 52 µM and 23.9 µM | > 100 µM and 16.6 µM | 32.6 µM and 13.5 µM | 61.5 µM and 12.5 µM
4 | Cc1nc2cccc([N+](=O)[O-])c2c(NCCCN(C)C)c1C | > 100 µM | > 54 µM | > 100 µM | > 31.6 µM | 17.8 µM | 55.3 µM | 60.6 µM | > 100 µM | 60.2 µM | > 100 µM | > 100 µM | > 100 µM | – | – | – | – | – | – | –
5 | CN(C)CCCOC(=O)C(c1ccccc1)C1(O)CCSCC1 (stereo not drawn) | > 100 µM | > 100 µM | > 100 µM | > 100 µM | > 100 µM | > 100 µM | > 100 µM | > 100 µM | > 100 µM | > 100 µM | > 100 µM | 78.6 µM | – | – | – | – | – | – | –
6 | CN(CCC#N)c1ccc(/C=C2\SC(=S)NC2=O)cc1 | > 100 µM | > 100 µM | > 100 µM | > 100 µM | > 100 µM | > 100 µM | > 100 µM | > 100 µM | > 100 µM | > 100 µM | > 100 µM | > 100 µM | – | – | – | – | – | – | –
7 | NC(=O)N/N=C(\Cc1nc2ccc(Cl)cc2[nH]c1=O)C(=O)Nc1ccc(Cl)cc1Cl | > 100 µM | > 100 µM | > 100 µM | > 100 µM | > 100 µM | > 100 µM | > 100 µM | > 100 µM | > 100 µM | > 100 µM | > 100 µM | > 100 µM | – | – | – | – | – | – | –
8 | Brc1ccc(CCNCCN2CCCCC2)cc1 | 27.5 µM | 32 µM | 30 µM | > 100 µM | > 100 µM | 15.4 µM | 29.5 µM | 23.8 µM | 36.2 µM | > 100 µM | 23.3 µM | 34 µM | – | – | – | – | – | – | –
9 | C[C@@]12[C@H]3CC[C@@H]1[C@H](O)C(=O)N2CC3 | > 100 µM | > 100 µM | > 100 µM | > 100 µM | > 100 µM | > 100 µM | > 100 µM | > 100 µM | > 100 µM | > 100 µM | > 100 µM | > 100 µM | – | – | – | – | – | – | –
10 | Cc1nc(-c2ccc([N+](=O)[O-])cc2)cn2c1nc1ccccc12 | > 100 µM | > 100 µM | > 100 µM | > 100 µM | > 100 µM | > 100 µM | > 100 µM | > 100 µM | > 100 µM | > 100 µM | > 100 µM | > 100 µM | – | – | – | – | – | – | –
11 | Cc1nnc2n1N=C(c1cc(F)c(Cl)cc1Cl)/C(=C/c1ccc(Cl)cc1)S2 | 36.8 µM | 41.3 µM | 99.6 µM | 28.6 µM | > 100 µM | 34.5 µM | 50.8 µM | 35.4 µM | 28 µM | 44 µM | 92.3 µM | > 100 µM | – | – | – | – | – | – | –
12 | OC1C2[C@@H](O)CCCN2C[C@@H](O)[C@H]1O (stereo partly drawn) | > 100 µM | > 100 µM | > 100 µM | > 100 µM | > 100 µM | > 100 µM | > 100 µM | > 100 µM | > 100 µM | > 100 µM | > 100 µM | > 100 µM | – | – | – | – | – | – | –
13 | CCOc1cc(NC(C)=O)ccc1C(=O)NNC(=O)c1ccccc1OC(C)=O | > 90.3 µM | 73.8 µM | > 100 µM | > 70.4 µM | > 42.2 µM | > 100 µM | > 100 µM | > 100 µM | > 89.4 µM | > 28.6 µM | > 80.7 µM | > 100 µM | – | – | – | – | – | – | –
14 | CN1C(=O)N(c2ccccc2)C2(CCN(CC3COc4ccccc4O3)CC2)C1=O (stereo not drawn) | > 100 µM | > 100 µM | > 100 µM | > 100 µM | > 100 µM | > 100 µM | > 100 µM | > 100 µM | > 100 µM | > 100 µM | > 100 µM | 56.6 µM | – | – | – | – | – | – | –
15 | COCOC1/C=C/CCCCC2=C(C)C=C(C1)O2 (stereo not drawn) | > 100 µM | > 100 µM | > 100 µM | > 100 µM | > 100 µM | > 100 µM | > 100 µM | > 100 µM | > 100 µM | > 100 µM | > 100 µM | > 100 µM | – | – | – | – | – | – | –
16 | COc1cc(O)c(/C=N/N=C(\N)NO)c(OC)c1 | > 10 µM | > 10 µM | > 10 µM | > 10 µM | > 10 µM | > 10 µM | > 10 µM | > 10 µM | > 10 µM | > 10 µM | > 10 µM | > 10 µM | – | – | – | – | – | – | –
17 | COCOC1/C=C/CCCC#C[C@H](C)C(=O)CC1 (stereo partly drawn) | 13.5 µM | 25.4 µM | 21.1 µM | 23.1 µM | 5.12 µM | 13.6 µM | 23.1 µM | 24.3 µM | 20.1 µM | 7.63 µM | 30.4 µM | 32.6 µM | – | – | – | – | – | – | –
18 | O=C(O)c1cc2c(cc1CC(Cc1ccc3c(c1)CCC3)C(=O)O)CCC2 (stereo not drawn) | > 100 µM | > 100 µM | > 100 µM | > 100 µM | > 100 µM | > 100 µM | > 100 µM | > 100 µM | > 100 µM | > 100 µM | > 100 µM | > 100 µM | – | – | – | – | – | – | –
19 | OCCCCCNc1c2ccccc2nc2ccccc12 | 12.9 µM | 12.7 µM | > 29.7 µM | 17.5 µM | > 39 µM | 20.7 µM | 6.11 µM | 7.42 µM | 10.2 µM | 33.2 µM | 9.05 µM | 10.8 µM | – | – | – | – | – | – | –
20 | COc1cc2c(cc1OC)C1=Cc3cc(OC)c(OC)cc3C(C)N1C=C2 (stereo not drawn) | > 100 µM | > 100 µM | > 100 µM | > 100 µM | > 100 µM | > 100 µM | > 100 µM | > 100 µM | > 100 µM | > 100 µM | > 100 µM | > 100 µM | – | – | – | – | – | – | –
21 | CC(=O)OCC(C)C1=C(O)C(=O)C2(C)C/C=C(/C)CC/C=C(\C)CCC(O)C(C)CCC12 (stereo not drawn) | 32 µM | 36 µM | 33.8 µM | 32 µM | 66.7 µM | 33.3 µM | 44.2 µM | 33.6 µM | 31.6 µM | 39.2 µM | 31 µM | 33.9 µM | – | – | – | – | – | – | –
22 | COc1cc(/C=C2/C(=O)N(C(=O)c3ccccc3O)N=C2C)cc(OC)c1OC | > 100 µM | 0.7 µM | > 100 µM | > 100 µM | > 60.3 µM | > 100 µM | 34.9 µM | > 100 µM | > 100 µM | > 100 µM | 6.39 µM | > 100 µM | – | – | – | – | – | – | –
23 | CCCCN1C(=O)CC2[C@@H]3CCc4cc(OC(C)=O)ccc4C3CC[C@]2(C)C1=O (stereo partly drawn) | > 10 µM | > 10 µM | > 10 µM | > 10 µM | > 10 µM | > 10 µM | > 10 µM | > 10 µM | > 10 µM | > 10 µM | > 10 µM | > 10 µM | – | – | – | – | – | – | –
